Measured values published in patent publication US12473326B2, “Crystalline forms of dexamethasone dimers and uses thereof” (Ripple Therapeutics Corporation, priority 2019, dated 2025).

Assays:
[1] = Drug release from heat-molded glassy pellets in PBS, 1% FBS in PBS or 100% FBS at 37° C. (HPLC); type: physicochemical; details: heat-molded pellets in the glassy state, about 1 mm x 1 mm
Experimental: Heat-molded pellets from Compound 1 (˜1 mm×1 mm) were then placed in 20 mL glass vials and 2 mL of release buffer (either 100% phosphate buffered saline (PBS), 1% fetal bovine serum (FBS) in PBS, or 100% FBS) was added. Samples were incubated at 37° C. on a shaker rotating at 115 rpm. After 1 day, 3 days, 7 days, and subsequently in alternating 3 and 4 day intervals (i.e., 1, 3, 7, 10, 14 days etc.), release buffer was sampled directly (PBS) or syringe filtered, proteins were precipitated with acetonitrile, and drug release products were extracted. The samples were analyzed by high performance liquid chromatography (HPLC) to quantify drug products.

[2] = Drug release from crystalline powders suspended in PBS with 50% FBS, quantified by HPLC over time; type: physicochemical; details: crystalline powder suspended in PBS with 50% FBS, FIG. 12
Text: FIG. 12 is a graph depicting the release of Compound 1 from crystalline powders suspended in phosphate buffered saline (PBS) with 50% fetal bovine serum (FBS). The release of Compound 1 from the different crystalline forms was quantified by HPLC over time as described in Example 10.
Form I/II (mixture) and Form IV of Compound 1 were formed from acetonitrile and ethanol respectively. The crystalline powders were suspended in phosphate buffered saline (PBS) with 50% fetal bovine serum (FBS) and drug release from the different forms was quantified by HPLC over time (see FIG. 12).

[3] = Solubility in 90% acetonitrile-10% water as a function of temperature; type: physicochemical; details: Form II vs Form IV, FIG. 15
Experimental: FIG. 15 is a graph depicting the difference in the solubilities (mg/mi) of Form II and Form IV in […] as a function of temperature.
The solubility of Form II and Form IV were measured in 90% acetonitrile-10% water as a function of temperature (see FIG. 15).

[4] = Solubility in organic solvents; type: physicochemical
Text: This observation has implications for coating applications as making high concentration coating solutions (e.g., for coating a surface by dip coating or spray coating a solution of Compound 1 onto the surface) will be much more practical from Form II than from Form IV.

[5] = type: physicochemical; details: for thermodynamic stability of polymorph: solid form, comparison among observed polymorphs; for interconversion into other polymorphs: under the conditions tested
Text: Thus, Form IV in solid form has the advantage of longer-term shelf life without interconversion into another crystalline form.

[6] = Differential scanning calorimetry (behaviour on heating); type: physicochemical; details: DSC, FIG. 14

| Compound | drug release from the crystalline form over time [2] | thermodynamic stability of polymorph [5] | interconversion into other polymorphs [5] | further results |
| --- | --- | --- | --- | --- |
| C[C@@H]1C[C@H]2[C@@H]3CCC4=CC(=O)C=C[C@]4(C)[C@@]3(F)[C@@H](O)C[C@]2(C)[C@@]1(O)C(=O)COC(=O)OCCOCCOCCOC(=O)OCC(=O)[C@@]1(O)[C@H](C)C[C@H]2[C@@H]3CCC4=CC(=O)C=C[C@]4(C)[C@@]3(F)[C@@H](O)C[C@@]21C [Compound 1, dexamethasone-triethylene glycol-dexamethasone] | – | – | – | mechanism of drug release from pellet [1]: Release Drug Through Surface Erosion from an Intact Pellet |
| C[C@@H]1C[C@H]2[C@@H]3CCC4=CC(=O)C=C[C@]4(C)[C@@]3(F)[C@@H](O)C[C@]2(C)[C@@]1(O)C(=O)COC(=O)OCCOCCOCCOC(=O)OCC(=O)[C@@]1(O)[C@H](C)C[C@H]2[C@@H]3CCC4=CC(=O)C=C[C@]4(C)[C@@]3(F)[C@@H](O)C[C@@]21C [Form I/II] | faster release compared to Form IV | – | – | – |
| C[C@@H]1C[C@H]2[C@@H]3CCC4=CC(=O)C=C[C@]4(C)[C@@]3(F)[C@@H](O)C[C@]2(C)[C@@]1(O)C(=O)COC(=O)OCCOCCOCCOC(=O)OCC(=O)[C@@]1(O)[C@H](C)C[C@H]2[C@@H]3CCC4=CC(=O)C=C[C@]4(C)[C@@]3(F)[C@@H](O)C[C@@]21C [Form II] | – | high thermodynamic stability | not observed to convert to Form IV | solubility as a function of temperature [3]: higher solubility; solubility in organic solvents, comparison in words ([4]; Form II vs Form IV): much more soluble in organic solvents than Form IV |
| C[C@@H]1C[C@H]2[C@@H]3CCC4=CC(=O)C=C[C@]4(C)[C@@]3(F)[C@@H](O)C[C@]2(C)[C@@]1(O)C(=O)COC(=O)OCCOCCOCCOC(=O)OCC(=O)[C@@]1(O)[C@H](C)C[C@H]2[C@@H]3CCC4=CC(=O)C=C[C@]4(C)[C@@]3(F)[C@@H](O)C[C@@]21C [Form IV] | slower dissolution | most thermodynamically stable polymorph observed | not seen to convert into any other polymorphs | solubility in organic solvents relative to Form II ([4]; acetonitrile, ethanol, tetrahydrofuran, 2-methyl tetrahydrofuran, isobutyl acetate, acetone, butyl acetate, ethyl acetate, isopropyl acetate, methanol): ca. 10 fold; behaviour on heating (thermal stability) [6]: decomposes on heating |
| C[C@@H]1C[C@H]2[C@@H]3CCC4=CC(=O)C=C[C@]4(C)[C@@]3(F)[C@@H](O)C[C@]2(C)[C@@]1(O)C(=O)COC(=O)OCCOCCOCCOC(=O)OCC(=O)[C@@]1(O)[C@H](C)C[C@H]2[C@@H]3CCC4=CC(=O)C=C[C@]4(C)[C@@]3(F)[C@@H](O)C[C@@]21C [Form VIII] | – | – | – | conversion to another form by PXRD ([5]; after 14 days at room temperature and/or cooling at 0° C. for 14 days): conversion to Form IV |
